{
  "source": "patent US11214594B2",
  "about": "“Antimicrobial peptide having synergistic antibacterial effect with antibiotics on multidrug resistant bacteria, and use thereof” (priority 2016, dated 2022)",
  "key": {"MDREC 1238": {"test_system": "MDREC 1238", "assay_type": "cell-based, Escherichia coli", "conditions": "MDREC 1238; agent alone", "in_short": "(§1)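 Peptides were serially diluted twofold in Mueller-Hinton medium and combined 1:1 with bacterial suspensions prepared at 2×10^6 CFU. Readout was the minimal inhibitory concentration, i.e. the lowest concentration with no growth.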"}, "MDRPA 2002": {"test_system": "MDRPA 2002", "assay_type": "cell-based, Pseudomonas aeruginosa", "conditions": "MDRPA 2002; agent alone", "in_short": "as §1"}, "MDRPA 2003": {"test_system": "MDRPA 2003", "assay_type": "cell-based, Pseudomonas aeruginosa", "conditions": "MDRPA 2003; agent alone", "in_short": "as §1"}, "A. baumannii [1]": {"test_system": "A. baumannii", "test": "microbe, parasite or virus in culture", "assay_type": "cell-based, Acinetobacter baumannii", "in_short": "as §1"}, "MDRAB 12035 [2]": {"test_system": "MDRAB 12035", "test": "microbe, parasite or virus in culture", "assay_type": "cell-based, Acinetobacter baumannii", "conditions": "MDRAB 12035", "in_short": "as §1"}, "MDRAB 12036": {"test_system": "MDRAB 12036", "assay_type": "cell-based, Acinetobacter baumannii", "conditions": "MDRAB 12036; agent alone", "in_short": "as §1"}, "S. typhimurium": {"test_system": "S. typhimurium", "test": "microbe, parasite or virus in culture", "assay_type": "cell-based, Salmonella typhimurium", "in_short": "as §1"}, "MDRST 8007": {"test_system": "MDRST 8007", "test": "Minimal inhibitory concentration (MIC), single agent", "assay_type": "cell-based, Salmonella typhimurium", "conditions": "agent alone", "in_short": "as §1"}, "S. aureus": {"test_system": "S. aureus", "test": "microbe, parasite or virus in culture", "assay_type": "cell-based, Staphylococcus aureus", "in_short": "as §1"}, "MRSA 3114": {"test_system": "MRSA 3114", "assay_type": "cell-based, Staphylococcus aureus", "conditions": "MRSA 3114; agent alone", "in_short": "as §1"}, "MRSA 3126": {"test_system": "MRSA 3126", "assay_type": "cell-based, Staphylococcus aureus", "conditions": "MRSA 3126; agent alone", "in_short": "as §1"}, "MDRAB 12035 [3]": {"test_system": "MDRAB 12035", "test": "MIC of antibiotic during combined treatment with antimicrobial peptide", "assay_type": "cell-based, Acinetobacter baumannii", "in_short": "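Strains in MH medium at 2×10^6 CFU/ml were mixed with peptide diluted stepwise (2:1) from its MIC, then antibiotic dilutions in MH medium were added to give the antibiotic MIC. The reversed set-up, peptide titrated against fixed antibiotic, gave the peptide MIC.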"}, "E. coli": {"test_system": "E. coli", "assay_type": "cell-based, Escherichia coli", "protocol": "(§2) A synergistic effect of a peptide and antibiotics was evaluated at antibacterial activity against a strain by using an MIC value determined for each mixed solution. For the evaluation, a fractional inhibitory concentration (FIC) value was used (Elion, Gertrude B., Samuel Singer, and George H. Hitchings. Journal of Biological Chemistry 208.2 (1954): 477-488.).\n(§3) A method generally used to decide the synergistic effect by using the FIC values is a checkerboard assay, and is a method that selects the lowest FIC index value in a well in which the growth of bacteria is suppressed. However, the selection of one FIC index in the method has a problem in that when the antibacterial activity of the antibiotics is lower, the FIC index is calculated so as to have a big synergistic effect, and is not accurate and has many experimental errors. Thus, with respect to the FIC index calculated by [Equation 1], an average FIC index was again calculated by using the following [Equation 2] (He, Jing, Charles G. Starr, and William C. Wimley. Biochimica et Biophysica Acta (BBA)-Biomembranes 1848.1 (2015): 8-15.)."}, "MDREC 1229": {"test_system": "MDREC 1229", "assay_type": "cell-based, Escherichia coli", "protocol": "as §2, §3"}, "A. baumannii [4]": {"test_system": "A. baumannii", "assay_type": "cell-based, Acinetobacter baumannii", "protocol": "as §2, §3"}, "MDRAB 12035 [5]": {"test_system": "MDRAB 12035", "assay_type": "cell-based, Acinetobacter baumannii", "protocol": "as §2, §3"}, "[6]": {"test_system": "multi-drug resistant bacteria", "test": "MIC, summary statements for multi-drug resistant bacteria", "assay_type": "cell-based", "in_short": "as §1"}, "[7]": {"conditions": "peptide treatment concentration 1 μg/ml"}, "[8]": {"conditions": "peptide treatment concentration 2 μg/ml"}, "[9]": {"conditions": "peptide treatment concentration 4 μg/ml"}, "[10]": {"conditions": "peptide treatment concentration 6 μg/ml"}, "[11]": {"conditions": "peptide treatment concentration 8 μg/ml"}, "[12]": {"conditions": "peptide treatment concentration 16 μg/ml"}, "[13]": {"conditions": "peptide treatment concentration 32 μg/ml"}, "[14]": {"conditions": "peptide treatment concentration 64 μg/ml"}, "[15]": {"conditions": "peptide combined with erythromycin"}, "[16]": {"conditions": "peptide combined with linezolid"}, "[17]": {"conditions": "peptide combined with vancomycin"}},
  "note": "Where a SMILES comes first, the peptide text is derived from it. [ ]: non-standard residue; d: D form.",
  "data": [
    {"compound": "CC[C@H](C)[C@H](NC(=O)[C@H](CCCCN)NC(=O)[C@H](Cc1c[nH]c2ccccc12)NC(=O)[C@@H](N)CCCNC(=N)N)C(=O)N[C@@H](Cc1ccccc1)C(=O)N[C@@H](CCCCN)C(=O)N[C@@H](CCCCN)C(=O)N[C@H](C(=O)N[C@H](CC(C)C)C(=O)N[C@@H](CCCCN)C(=O)N[C@@H](CC(C)C)C(=O)N[C@@H](CC(C)C)C(=O)N[C@@H](Cc1c[nH]cn1)C(=O)N[C@@H](CCCCN)C(=O)N[C@@H](Cc1ccccc1)C(=O)N[C@@H](CCCCN)C(=O)N[C@@H](CCCCN)C(=O)N[C@@H](Cc1ccccc1)C(N)=O)[C@@H](C)CC", "note": "[PapMA-21, RWK IFK KIl KLL HKF KKF-NH2] (H-RWKIFKKI[dL]KLLHKFKKF-NH2; N-terminus assumed)", "values": [
      {"measurement": "Minimal inhibitory concentration MIC", "setting": "MDREC 1238", "value": 32, "unit": "µg/mL"},
      {"measurement": "Minimal inhibitory concentration MIC", "setting": "MDRPA 2002", "value": 32, "unit": "µg/mL"},
      {"measurement": "Minimal inhibitory concentration MIC", "setting": "MDRPA 2003", "value": 32, "unit": "µg/mL"},
      {"measurement": "Minimal inhibitory concentration MIC", "setting": "A. baumannii [1]", "value": 32, "unit": "µg/mL"},
      {"measurement": "Peptide MIC, peptide alone", "setting": "A. baumannii [1]", "value": 32, "unit": "µg/mL"},
      {"measurement": "Antibacterial activity relative to PapMA-1", "setting": "A. baumannii [1]; A. baumannii and S. typhimurium", "value": "at least twice as high"},
      {"measurement": "Minimal inhibitory concentration MIC", "setting": "MDRAB 12035 [2]; agent alone", "value": 32, "unit": "µg/mL"},
      {"measurement": "Peptide MIC, peptide alone", "setting": "MDRAB 12035 [2]; no antibiotic", "value": 32, "unit": "µg/mL"},
      {"measurement": "Minimal inhibitory concentration MIC", "setting": "MDRAB 12036", "value": 32, "unit": "µg/mL"},
      {"measurement": "Minimal inhibitory concentration MIC", "setting": "S. typhimurium", "value": 32, "unit": "µg/mL"},
      {"measurement": "Minimal inhibitory concentration MIC", "setting": "MDRST 8007", "value": 64, "unit": "µg/mL"},
      {"measurement": "Minimal inhibitory concentration MIC", "setting": "S. aureus", "value": ">128", "unit": "µg/mL"},
      {"measurement": "Minimal inhibitory concentration MIC", "setting": "MRSA 3114", "value": ">128", "unit": "µg/mL"},
      {"measurement": "Minimal inhibitory concentration MIC", "setting": "MRSA 3126", "value": ">128", "unit": "µg/mL"},
      {"measurement": "Erythromycin MIC during combined treatment with peptide", "setting": "MDRAB 12035 [3]; [7]", "value": 32, "unit": "µg/mL"},
      {"measurement": "Linezolid MIC during combined treatment with peptide", "setting": "MDRAB 12035 [3]; [7]", "value": ">128", "unit": "µg/mL"},
      {"measurement": "Vancomycin MIC during combined treatment with peptide", "setting": "MDRAB 12035 [3]; [7]", "value": ">128", "unit": "µg/mL"},
      {"measurement": "Erythromycin MIC during combined treatment with peptide", "setting": "MDRAB 12035 [3]; [8]", "value": 32, "unit": "µg/mL"},
      {"measurement": "Linezolid MIC during combined treatment with peptide", "setting": "MDRAB 12035 [3]; [8]", "value": ">128", "unit": "µg/mL"},
      {"measurement": "Vancomycin MIC during combined treatment with peptide", "setting": "MDRAB 12035 [3]; [8]", "value": ">128", "unit": "µg/mL"},
      {"measurement": "Erythromycin MIC during combined treatment with peptide", "setting": "MDRAB 12035 [3]; [9]", "value": 16, "unit": "µg/mL"},
      {"measurement": "Linezolid MIC during combined treatment with peptide", "setting": "MDRAB 12035 [3]; [9]", "value": 64, "unit": "µg/mL"},
      {"measurement": "Vancomycin MIC during combined treatment with peptide", "setting": "MDRAB 12035 [3]; [9]", "value": 128, "unit": "µg/mL"},
      {"measurement": "Erythromycin MIC during combined treatment with peptide", "setting": "MDRAB 12035 [3]; [10]", "value": 4, "unit": "µg/mL"},
      {"measurement": "Linezolid MIC during combined treatment with peptide", "setting": "MDRAB 12035 [3]; [10]", "value": 32, "unit": "µg/mL"},
      {"measurement": "Vancomycin MIC during combined treatment with peptide", "setting": "MDRAB 12035 [3]; [10]", "value": 64, "unit": "µg/mL"},
      {"measurement": "Erythromycin MIC during combined treatment with peptide", "setting": "MDRAB 12035 [3]; [11]", "value": 1, "unit": "µg/mL"},
      {"measurement": "Linezolid MIC during combined treatment with peptide", "setting": "MDRAB 12035 [3]; [11]", "value": 16, "unit": "µg/mL"},
      {"measurement": "Vancomycin MIC during combined treatment with peptide", "setting": "MDRAB 12035 [3]; [11]", "value": 32, "unit": "µg/mL"},
      {"measurement": "Erythromycin MIC during combined treatment with peptide", "setting": "MDRAB 12035 [3]; [12]", "value": 0.5, "unit": "µg/mL"},
      {"measurement": "Linezolid MIC during combined treatment with peptide", "setting": "MDRAB 12035 [3]; [12]", "value": 8, "unit": "µg/mL"},
      {"measurement": "Vancomycin MIC during combined treatment with peptide", "setting": "MDRAB 12035 [3]; [12]", "value": 16, "unit": "µg/mL"},
      {"measurement": "Erythromycin MIC during combined treatment with peptide", "setting": "MDRAB 12035 [3]; [13]", "value": 0, "unit": "µg/mL"},
      {"measurement": "Linezolid MIC during combined treatment with peptide", "setting": "MDRAB 12035 [3]; [13]", "value": 0, "unit": "µg/mL"},
      {"measurement": "Vancomycin MIC during combined treatment with peptide", "setting": "MDRAB 12035 [3]; [13]", "value": 0, "unit": "µg/mL"},
      {"measurement": "Erythromycin MIC during combined treatment with peptide", "setting": "MDRAB 12035 [3]; [14]", "value": 0, "unit": "µg/mL"},
      {"measurement": "Linezolid MIC during combined treatment with peptide", "setting": "MDRAB 12035 [3]; [14]", "value": 0, "unit": "µg/mL"},
      {"measurement": "Vancomycin MIC during combined treatment with peptide", "setting": "MDRAB 12035 [3]; [14]", "value": 0, "unit": "µg/mL"},
      {"measurement": "Average FIC index, Erythromycin", "setting": "E. coli; [15]", "value": 0.15},
      {"measurement": "Average FIC index, Linezolid", "setting": "E. coli; [16]", "value": 0.35},
      {"measurement": "Average FIC index, Vancomycin", "setting": "E. coli; [17]", "value": 0.21},
      {"measurement": "Average FIC index, Erythromycin", "setting": "MDREC 1229; [15]", "value": 0.15},
      {"measurement": "Average FIC index, Linezolid", "setting": "MDREC 1229; [16]", "value": 0.28},
      {"measurement": "Average FIC index, Vancomycin", "setting": "MDREC 1229; [17]", "value": 0.26},
      {"measurement": "Average FIC index, Erythromycin", "setting": "A. baumannii [4]; [15]", "value": 0.40},
      {"measurement": "Average FIC index, Linezolid", "setting": "A. baumannii [4]; [16]", "value": 0.35},
      {"measurement": "Average FIC index, Vancomycin", "setting": "A. baumannii [4]; [17]", "value": 0.11},
      {"measurement": "Average FIC index, Erythromycin", "setting": "MDRAB 12035 [5]; [15]", "value": 0.49},
      {"measurement": "Average FIC index, Linezolid", "setting": "MDRAB 12035 [5]; [16]", "value": 0.22},
      {"measurement": "Average FIC index, Vancomycin", "setting": "MDRAB 12035 [5]; [17]", "value": 0.17},
      {"measurement": "Antibacterial activity relative to PapMA-1", "setting": "[6]", "value": "twice to four times higher"}
    ]}
  ]
}
